The values below come from patent US9139574B2, “Tumor targeted drug combretastatin A4 derivative” (Nanjing Sanhome Pharmaceutical Co., Ltd., priority 2011, dated 2015).

Data set [1] concerns HCT-116. As to the kind of experiment: MTT assay of anti-tumor activity, HCT-116. The data set is classed as cell-based. Particulars: HCT-116 cells. As for the experimental part:
(§1) The cells were digested and counted. The cell suspension was prepared in a concentration of 5×10^4 cells/ml. 100 μL of the cell suspension per well was added into 96-well plates (5×10^3 cells per well). The 96-well plates were placed in a 5% CO2 incubator at 37° C. for 24 hours. The drugs were diluted with the complete medium to the desired concentrations. 100 μL of the corresponding drug-containing medium was added into each well. Negative control group, vehicle control group and positive control group were set. The 96-well plates were placed in 5% CO2 incubator at 37° C. for 72 hours. The 96-well plates were subjected to a MTT assay, and measured OD value at λ=490 nm. The measurement procedure comprises adding 20 μL MTT (5 mg/ml) for each well, incubating for 4 hours in an incubator, discarding the medium, dissolving by adding 150 μL DMSO into each well, mixing uniformly by rocking gently for 10 minutes on a shaker, reading OD value of each well in a microplate reader at λ=490 nm. The inhibition rate was calculated, the results were recorded, and the anti-tumor activity was assessed.
For orientation: Formazan colour is commonly taken as a measure of viable cells.

Data set [2] has as its system K562. As to the kind of experiment: MTT assay of anti-tumor activity, K562. Format: cell-based. Particulars: K562 cells. As for the experimental part:
as §1

Data set [3] relates to DU-145. As to the kind of experiment: MTT assay of anti-tumor activity, DU-145. Format: cell-based. Particulars: DU-145 cells. The procedure: as §1
Data set [4] has as its system MCF-7. As to the kind of experiment: MTT assay of anti-tumor activity, MCF-7. The data set is classed as cell-based. Particulars: MCF-7 cells. As for the experimental part: as §1
Data set [5] concerns NCI-H460. The data set can be described thus: MTT assay of anti-tumor activity, NCI-H460. Particulars: NCI-H460 cells. Format: cell-based. The procedure:
as §1

For `COc1cc(-c2ncn(CCO)c2-c2ccc(N(CCCl)CCCl)cc2)cc(OC)c1OC` [Compound C248], the IC50 (in general, the concentration needed to halve the response being measured) in data set [1] (72 hours) was 312 nM; in data set [2] (72 hours), 11.2 nM; in data set [3] (72 hours), over 300 nM; in data set [4] (72 hours), 6.9 nM; in data set [5] (72 hours), 10.3 nM.
For the molecule `COc1cc(-c2ncn(-c3cc(OC)c(OC)c(OC)c3)c2-c2ccc(N(C)C)cc2)cc(OC)c1OC` [Compound C106, 5-(4-dimethylaminophenyl)-4-(3,4,5-trimethoxyphenyl)-1-(3,4,5-trimethoxyphenyl)imidazole], the melting point – broadly, the temperature, or range, at which the solid turns liquid – was in the range of 168.8 to 170.9 °C. In data set [1] (Homo sapiens, HCT-116, 72 h), this molecule returned a half-maximal inhibitory concentration (IC50) of 136 nM. The same molecule returned a half-inhibitory concentration (IC50) in data set [2] (Homo sapiens, K562, 72 h) of 3.2 nM. The same molecule had an IC50 in data set [3] (Homo sapiens, DU-145, 72 h) of 92.3 nM. The molecule further gave a half-maximal inhibitory concentration (IC50) in data set [4] (Homo sapiens, MCF7, 72 h) of 7.3 nM. Also, in data set [5] (Homo sapiens, NCI-H460, 72 h), the IC50 was over 300 nM.
In the case of `COc1cc(OC)cc(-c2ncn(C)c2-c2ccc(OC(F)(F)F)c(N)c2)c1` [Compound C132, 4-(3,5-dimethoxyphenyl)-5-(3-amino-4-trifluoromethoxyphenyl)-1-methylimidazole], the 50% inhibitory concentration (IC50) in data set [1] (Homo sapiens, HCT-116, 72 h) was 52 nM; in data set [2] (Homo sapiens, K562, 72 h), 4.5 nM; in data set [3] (Homo sapiens, DU-145, 72 h), over 300 nM; in data set [4] (Homo sapiens, MCF7, 72 h) it was 7.8 nM; in data set [5] (Homo sapiens, NCI-H460, 72 h) it was 90.1 nM.
Regarding `COc1cc(OC)cc(-c2ncoc2-c2ccc(OC)c(O)c2F)c1` [Compound C117, 4-(3,5-dimethoxyphenyl)-5-(2-fluoro-3-hydroxy-4-methoxyphenyl)oxazole], the melting point lay in the range of 168.1 to 172.4 °C. Besides, the IC50 in data set [1] (Homo sapiens, HCT-116, 72 h) is over 300 nM. Inhibition in data set [2] (Homo sapiens, K562, 72 h) was half-maximal at 8.5 nM (IC50). Besides, half-maximal inhibition in data set [3] (Homo sapiens, DU-145, 72 h) (IC50) was put at 130 nM. The molecule further returned an IC50 in data set [4] (Homo sapiens, MCF7, 72 h) of 88.9 nM. In data set [5] (Homo sapiens, NCI-H460, 72 h), this molecule came in with a concentration for half-maximal inhibition (IC50) of 10.2 nM.
`COc1cc(OC)cc(-c2ncn(C)c2-c2ccc(OC(F)F)c(N)c2)c1` [Compound C135, 4-(3,5-dimethoxyphenyl)-5-(3-amino-4-difluoromethoxyphenyl)-1-methylimidazole]: the melting point is 99.2 to 101.3 °C. The half-maximal inhibitory concentration (IC50) in data set [1] (Homo sapiens, HCT-116, 72 h) came to 68 nM. Moreover, the IC50 in data set [2] (Homo sapiens, K562, 72 h) was determined as 6.9 nM. Further, in data set [3] (Homo sapiens, DU-145, 72 h), the IC50 amounted to 161 nM. Also, half-maximal inhibition in data set [4] (Homo sapiens, MCF7, 72 h) (IC50) was put at 5.6 nM. The molecule also came in with an IC50 in data set [5] (Homo sapiens, NCI-H460, 72 h) of 76.3 nM.
With `COc1cc(OC)cc(-c2nc[nH]c2-c2ccc(N(C)C)cc2)c1` [Compound C130, 4-(3,5-dimethoxyphenyl)-5-(4-dimethylaminophenyl)imidazole], the IC50 is 25 nM in data set [1] (Homo sapiens, HCT-116, 72 h); 23 nM in data set [2] (Homo sapiens, K562, 72 h); 21.3 nM in data set [2] (72 hours); 350 nM in data set [5] (Homo sapiens, NCI-H460, 72 h); over 300 nM in data set [5] (72 hours).
On to `COc1ccc(-c2ocnc2-c2cc(OC)c(N)c(OC)c2)cc1F` [CN01, 4-(3,5-dimethoxy-4-aminophenyl)-5-(3-fluoro-4-methoxyphenyl)oxazole], for which the melting point was 100.8 to 102.6 °C.
Consider `COc1cc(OC)cc(-c2nc[nH]c2-c2ccc(OC)c(O)c2N)c1` [Compound C147, 4-(3,5-dimethoxyphenyl)-5-(2-amino-3-hydroxy-4-methoxyphenyl)imidazole], for which the concentration for half-maximal inhibition (IC50) in data set [1] (Homo sapiens, HCT-116, 72 h) was over 300 nM; in data set [2] (Homo sapiens, K562, 72 h), 7.6 nM; in data set [3] (Homo sapiens, DU-145, 72 h) it was 123 nM; in data set [4] (Homo sapiens, MCF7, 72 h) it was 8.9 nM; in data set [5] (Homo sapiens, NCI-H460, 72 h) it was 89.3 nM.
As to `COc1ccc(-c2c(-c3cc(OC)c(OC)c(OC)c3)ncn2-c2cc(OC)c(OC)c(OC)c2)cc1O` [Compound C105, 5-(3-hydroxy-4-methoxyphenyl)-4-(3,4,5-trimethoxyphenyl)-1-(3,4,5-trimethoxyphenyl)imidazole], the concentration for half-maximal inhibition (IC50) in data set [1] (Homo sapiens, HCT-116, 72 h) is 151 nM; in data set [2] (Homo sapiens, K562, 72 h), 8.9 nM; in data set [4] (Homo sapiens, MCF7, 72 h), 21 nM; in data set [5] (Homo sapiens, NCI-H460, 72 h), 21 nM.
Molecule `COc1ccc(-c2ocnc2-c2cc(OC)c(O)c(OC)c2)cc1O` [CN06, 4-(3,5-dimethoxy-4-hydroxyphenyl)-5-(3-hydroxy-4-methoxyphenyl)oxazole] gave a melting point of 144.3 to 145.5 °C.
Still for that read-out and setting: for `COc1ccc(-c2[nH]cnc2-c2cc(OC)c(N)c(OC)c2)cc1O` [CN17, 4-(3,5-dimethoxy-4-aminophenyl)-5-(3-hydroxy-4-methoxyphenyl) imidazole] the value was 141.8 to 143.7 °C; for `COc1ccc(-c2ocnc2-c2cc(OC)c(O)c(OC)c2)cc1F` [CN03, 4-(3,5-dimethoxy-4-hydroxyphenyl)-5-(3-fluoro-4-methoxyphenyl)oxazole], 161.3 to 162.8 °C.
`COc1ccc(-c2ocnc2-c2cc(OC)c(Br)c(OC)c2)cc1N` [CN04, 4-(3,5-dimethoxy-4-bromophenyl)-5-(3-amino-4-methoxyphenyl)oxazole] came in with a melting point of 179.8 to 183.9 °C.
Regarding `COc1cc(OC)cc(-c2nc[nH]c2-c2ccc(OC)c(O)c2)c1.O=P([O-])([O-])O.[Na+].[Na+]`, the melting point fell in the range of 169.7 to 172.1 °C.
As to `COc1cc(OC)cc(-c2ncn(C)c2-c2scc3c2OCCO3)c1` [Compound C238, N-methyl-4-(3,5-dimethoxyphenyl)-5-[(3,4-ethylenedioxyl)thienyl]imidazole], the IC50 in data set [1] (72 hours) was 230 nM; in data set [2] (72 hours), 11.2 nM; in data set [3] (72 hours), 150 nM; in data set [4] (72 hours), 6.1 nM; in data set [5] (72 hours), over 300 nM.
Turning to `COc1ccc(-c2ocnc2-c2cc(OC)c(Br)c(OC)c2)cc1O` [CN02, 4-(3,5-dimethoxy-4-bromophenyl)-5-(3-hydroxy-4-methoxyphenyl)oxazole], the melting point lay in the range of 184.7 to 187 °C.
The same measure, in the same setting: for `COc1ccc(-c2[nH]cnc2-c2cc(OC)c(N)c(OC)c2)cc1N` [CN19, 4-(3,5-dimethoxy-4-aminophenyl)-5-(3-amino-4-methoxyphenyl) imidazole] the value was 139.7 to 142.1 °C; for `COc1cc(-c2ncn(-c3cc(OC)c(OC)c(OC)c3)c2-c2cc(OC)c(OC)c(OC)c2)cc(OC)c1OC` [Compound C107, 5-(3,4,5-trimethoxyphenyl)-4-(3,4,5-trimethoxyphenyl)-1-(3,4,5-trimethoxyphenyl)imidazole], 168.8 to 170.9 °C; for `COc1ccc(-c2[nH]cnc2-c2cc(OC)c(Br)c(OC)c2)cc1N` [CN13, 4-(3,5-dimethoxy-4-bromophenyl)-5-(3-amino-4-methoxyphenyl)imidazole], 159.7 to 162 °C.
On the same count and under the same terms, for `COc1ccc(-c2[nH]cnc2-c2cc(OC)c(O)c(OC)c2)cc1O` [CN15, 4-(3,5-dimethoxy-4-hydroxyphenyl)-5-(3-hydroxy-4-methoxyphenyl)imidazole] the value was 171.5 to 173 °C.
For the molecule `COc1cc(OC)cc(-c2ncoc2-c2ccc(OC(F)(F)F)c(O)c2)c1` [Compound C142, 4-(3,5-dimethoxyphenyl)-5-(3-hydroxy-4-trifluoromethoxyphenyl)oxazole], the concentration for half-maximal inhibition (IC50) in data set [1] (Homo sapiens, HCT-116, 72 h) was determined as 416 nM; in data set [2] (Homo sapiens, K562, 72 h), 4.2 nM; in data set [3] (Homo sapiens, DU-145, 72 h) it was 4.1 nM; in data set [4] (Homo sapiens, MCF7, 72 h) it was 11.3 nM; in data set [5] (Homo sapiens, NCI-H460, 72 h), 62 nM.
In turn, `COc1ccc(-c2[nH]cnc2-c2cc(OC)c(O)c(OC)c2)cc1F` [CN12, 4-(3,5-dimethoxy-4-hydroxyphenyl)-5-(3-fluoro-4-methoxyphenyl) imidazole] registered a melting point of 124.7 to 127 °C.
On the same count and under the same terms, for `COc1cc(OC)cc(-c2ncoc2-c2ccc(N)cc2)c1` [Compound C112, 4-(3,5-dimethoxyphenyl)-5-(4-aminophenyl)oxazole] the value was 142 to 146 °C.
Consider `COc1cc(OC)cc(-c2nc[nH]c2-c2ccc(OC)c(N)c2O)c1` [Compound C146, 4-(3,5-dimethoxyphenyl)-5-(2-hydroxy-3-amino-4-methoxyphenyl)imidazole], for which the 50% inhibitory concentration (IC50) is 289 nM in data set [1] (Homo sapiens, HCT-116, 72 h); 6.1 nM in data set [2] (Homo sapiens, K562, 72 h); over 300 nM in data set [3] (Homo sapiens, DU-145, 72 h); 9.3 nM in data set [4] (Homo sapiens, MCF7, 72 h).
Turning to `COc1cc(OC)cc(-c2ncoc2-c2ccc3c(c2)NC(=O)CO3)c1` [Compound C253, 4-(3,5-dimethoxyphenyl)-5-[6-(3-oxobenzomorpholiny)]oxazole], the half-inhibitory concentration (IC50) in data set [1] (72 hours) was found to be 121 nM; in data set [2] (72 hours) it was 310 nM; in data set [3] (72 hours), 76.2 nM; in data set [4] (72 hours), 6.4 nM; in data set [5] (72 hours), 26.4 nM.
On to `COc1cc(-c2ncn(-c3ccc(C(F)(F)F)cc3)c2-c2ccc(N(C)C)cc2)cc(OC)c1OC` [Compound C092, 5-(4-dimethylaminophenyl)-4-(3,4,5-trimethoxyphenyl)-1-(4-trifluoromethylphenyl)imidazole], for which the melting point was 215 to 217 °C.
`COc1cc(OC)cc(-c2nc[nH]c2-c2ccc(OC(F)(F)F)c(N)c2)c1` [Compound C152, 4-(3,5-dimethoxyphenyl)-5-(3-amino-4-trifluoromethoxyphenyl)imidazole]: the IC50 in data set [1] (Homo sapiens, HCT-116, 72 h) was 34 nM; in data set [2] (Homo sapiens, K562, 72 h), 6.8 nM; in data set [4] (Homo sapiens, MCF7, 72 h) it was 10.2 nM; in data set [5] (Homo sapiens, NCI-H460, 72 h), over 300 nM.
